These results are taken from US20260015364A1, “PIPERAZINE BRIDGE-SUBSTITUTED HETEROCYCLIC PYRIMIDINE COMPOUND” (MEDSHINE DISCOVERY INC., priority 2022, published 2026).

A word on the IC50: it is the concentration needed to halve the response being measured. Low values mean greater potency, high ones weaker potency.

The test system of the assay is p-ERK in GP2D cells. In words: p-ERK inhibition test of GP2D cells (HTRF). Format: cell-based. To be noted: Homo sapiens, 1 hour compound incubation. Here is the method:
• 1). GP2D cells are seeded in a transparent 96-well cell culture plate, with 80 μL of cell suspension per well and 8000 cells per well, and the cell plate is incubated in a carbon dioxide incubator at 37° C. overnight; • 2). 2 μL of the compound is added to 78 μL of cell culture medium; after mixing well, 20 μL of the compound solution is taken and added to the corresponding cell plate wells, and the cell plate is put back into the carbon dioxide incubator to incubate for another 1 hour; • 3). After the incubation is completed, the cell supernatant is discarded, and 50 μL of 1× cell lysate is added to each well, and incubated at room temperature for 30 minutes with shaking; • 4). Phospho-ERK1/2 Eu Cryptate antibody and Phospho-ERK1/2 d2 antibody are 20-fold diluted using detection buffer; • 5). […] After the incubation is completed, a multimode microplate reader is used to read HTRF excitation: 320 nm, emission: 615 nm, 665 nm; • 7). The IC50 of the test compound is calculated.
• 1). […] After the incubation was completed, a multimode microplate reader was used to read HTRF excitation: 320 nm, emission: 615 nm, 665 nm; • 7) The IC50 of the test compound was calculated.
For orientation: In TR-FRET formats the signal depends on donor and acceptor labels being close together.

`Nc1cc(F)c(C(F)(F)F)c(-c2ncc3c(N4CC5C=CC(C4)N5)nc(OC[C@@]45CCCN4C[C@H](F)C5)nc3c2F)c1` [Compound 1] came in with a half-inhibitory concentration (IC50) of 4.75 nM. This lies in the single-digit nanomolar range.
